Test results reported in EP4772514A1, “MACROCYCLIC COMPOUNDS, PREPARATION METHOD THEREFOR, AND USE THEREOF” (Genfleet Therapeutics (Shanghai) Inc., priority 2023, dated 2025).
Like-named read-outs stand apart in the source and are kept apart here.

Tests used:
Type in all cases: cell-based
p-ERK [1] = experiment: Cell p-ERK assay (HTRF, Advance ERK phospho-T202/Y204 kit) in AsPC-1 cells; conditions: ASPC1; AsPC-1, human pancreatic cancer cell strain, KRAS G12D mutation; 3 h compound incubation
Protocol: AsPC-1 cells were purchased from ATCC, Cat. No. CRL-1682; NCI-H441 cells were purchased from ATCC, Cat. No. HTB-174; RPMI-1640 medium was purchased from Gibco, Cat. No. 11875-093; FBS was purchased from Gibco, Cat. No. 10099-141C; penicillin/streptomycin double-antibiotic solution (PS) was purchased from Gibco, Cat. No. 15140-122; trypsin (containing EDTA) was purchased from Gibco, Cat. No. 25200-072; DMSO was purchased from VWRAMRESCO, Cat. No. 0231-500ML; 96-well cell culture plates were purchased from Corning, Cat. No. 3599; white-bottomed, opaque 96-well plates were purchased from Cisbio, Cat. No. 66PL96025; Advance ERK phospho-T202/Y204 kit was purchased from Cisbio, Cat. No. 64AERPEH; cell counter was purchased from CHEMOMETEC, model: NC-200; microplate reader was purchased from PerkinElmer, model: EnVision.
AsPC-1, a human pancreatic cancer cell strain endogenously containing a KRAS^G12D mutation, was cultured in a complete medium containing RPMI-1640 + 10% FBS + 1% PS. NCI-H441, a human non-small cell lung cancer cell strain endogenously containing a KRAS^G12V mutation, was cultured in a complete medium containing RPMI-1640 + 10% FBS + 1% PS.
The cells were digested with trypsin (containing EDTA), collected in their corresponding complete media, and counted. The density of the cell suspensions was adjusted with their corresponding complete media, and AsPC-1 cells (10000 cells/well) or NCI-H441 cells (20000 cells/well) were seeded into a 96-well cell culture plate, with the volume of the medium in each well being 80 µL. The cell culture plate was incubated in an incubator at 37 °C with 5% CO2 overnight. A series of 3.16-fold gradient dilutions of a 1000× compound stock solution were prepared with DMSO, and then diluted 200-fold with the complete medium described above to give 5× compound stock solutions. On the day after cell seeding, 20 µL of the 5× compound stock solution was added to each cell culture well. As a result, the final concentration of the compound in the cell culture well became 1×, and the DMSO content in the well was 0.1%. In addition to the compound-treated wells described above, cell-containing DMSO control wells were also set. A complete medium containing 0.5% DMSO was added at 20 µL/well. After the mixture was well mixed, the culture plate was incubated in the incubator at 37 °C with 5% CO2 for another 3 h. The medium was then removed from the culture wells, and 50 µL of cell lysis buffer (from Advance ERK phospho-T202/Y204 kit) was added to each well. The mixture was well mixed, incubated for 30 min, and then transferred to a white-bottomed, opaque 96-well assay plate at 16 µL/well, and separately, 16 µL of cell lysis buffer was added to additional wells (serving as blank wells) in the assay plate. After the transfer was completed, 4 µL of p-ERK HTRF antibody mixture (from Advance ERK phospho-T202/Y204 kit) was added to each well of the assay plate, followed by a 4-hour incubation. The HTRF signal values (RLU) were then measured using a microplate reader, and the inhibition rate of the compound against p-ERK levels was calculated as follows: IR(%) = (RLUDMSO - RLUcompound)/(RLUDMSO - RLUblank) × 100%, where RLUDMSO is the average HTRF signal value from the DMSO control well samples, RLU is the average HTRF signal value from the blank well samples, and RLUcompound is the HTRF signal value from the compound-treated well samples. Using an XLfit software, the IR(%) values were plotted against the logarithm of the compound concentrations, and the dose-response curves were fitted using the four-parameter method to calculate the IC50 values.

p-ERK [2] = experiment: Cell p-ERK assay (HTRF, Advance ERK phospho-T202/Y204 kit) in NCI-H441 cells; conditions: NCI-H441, human non-small cell lung cancer cell strain, KRAS G12V mutation, 3 h compound incubation
How it was run: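 Cells with endogenous KRAS mutations, AsPC-1 (G12D) and NCI-H441 (G12V), were plated overnight and then exposed to compound for 3 h at 37 °C (final 0.1% DMSO, 10% FBS medium). ERK T202/Y204 phosphorylation in lysates was read by HTRF, and IC50 was derived from four-parameter curves of inhibition relative to DMSO and blank controls.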

NCI-H441 cells = experiment: 3D cell proliferation assay (CellTiter Glo-3D) in NCI-H441 cells; conditions: NCI-H441, human lung cancer cell strain, KRAS G12V mutation, 3D culture, 2% FBS, 5 days, read-out: H441 AP IC50
Excerpt: MIA PaCa-2 cells were purchased from ATCC, Cat. No. CRL-1420; AsPC-1 cells were purchased from ATCC, Cat. No. CRL-1682; NCI-H441 cells were purchased from ATCC, Cat. No. HTB-174; NCI-H1975 cells were purchased from ATCC, Cat. No. CRL-5908; DMEM medium was purchased from Gibco, Cat. No. 11995-065; RPMI-1640 medium was purchased from Gibco, Cat. No. 11875-093; FBS was purchased from Gibco, Cat. No. 10099-141C; penicillin/streptomycin double-antibiotic solution (PS) was purchased from Gibco, Cat. No. 15140-122; Horse serum was purchased from Gibco, Cat. No. 16050130; trypsin (containing EDTA) was purchased from Gibco, Cat. No. 25200-072; DMSO was purchased from VWRAMRESCO, Cat. No. 0231-500ML; 384-well cell culture plates were purchased from Corning, Cat. No. 3830; white-bottomed, opaque 384-well assay plates were purchased from Corning, Cat. No. 3570; CellTiter Glo-3D kit was purchased from Promega, Cat. No. G9683; cell counter was purchased from CHEMOMETEC, model: NC-200; microplate reader was purchased from PerkinElmer, model: EnVision.
MIA PaCa-2, a human pancreatic cancer cell strain endogenously containing a KRAS^G12Cmutation, was cultured in a complete medium containing DMEM + 10% FBS + 2.5% Horse serum + 1% PS. AsPC-1, a human pancreatic cancer cell strain endogenously containing a KRAS^G12D mutation, was cultured in a complete medium containing RPMI-1640 + 10% FBS + 1% PS. NCI-H441 cells, a human lung cancer cell strain endogenously containing a KRAS^G12V mutation, were cultured in a complete medium containing RPMI-1640 + 10% FBS + 1% PS. NCI-H1975, a KRAS wild-type human lung cancer cell strain whose cell proliferation […], was cultured in a complete medium containing RPMI-1640 + 10% FBS + 1% PS.
The cells were digested with trypsin (containing EDTA), collected in their respective low-serum complete media containing 2% FBS (for MIA Paca-2 cell culture: DMEM + 2% FBS + 0.5% Horse serum + 1% PS), and counted. After the cell density was adjusted as required, MIA PaCa-2 cells (200 cells/well), AsPC-1 cells (800 cells/well), NCI-H441 cells (800 cells/well), or NCI-H1975 cells (400 cells/well) were seeded into a 384-well cell culture plate, with the volume of the medium in each well being 45 µL. The cell culture plate was incubated in an incubator at 37 °C with 5% CO2 overnight. A series of 3.16-fold gradient dilutions of a 1000× compound stock solution were prepared with DMSO, and then diluted 100-fold with the complete medium containing 2% FBS described above to give 10× compound stock solutions. On the day after cell seeding, 5 µL of the 10× compound stock solution was added to each cell culture well. As a result, the final concentration of the compound in the cell culture well became 1×, and the DMSO content in the well was 0.1%. In addition to the compound-treated wells described above, cell-containing DMSO control wells (with 5 µL of the complete medium containing 1% DMSO added to each well) and cell-free medium control wells (containing 50 µL of the complete medium with 2% FBS) were also set. The culture plate was incubated in an incubator at 37 °C with 5% CO2 for another 5 days, and then 30 µL of CellTiter-Glo working solution was added to each well. The mixture was well mixed, incubated for 30 min, left to stand at room temperature for 30 min, and then transferred to a white-bottomed, opaque 384-well assay plate at 40 µL/well. The chemiluminescence values (RLU) were measured using a microplate reader, and the cell proliferation inhibition rate for each well was calculated: IR(%) = (RLUDMSO - RLUcompound)/(RLUDMSO - RLUblank) × 100%, where RLUDMSO is the average RLU signal value from the DMSO control well samples, RLUblank is the average RLU signal value from the medium control well samples, and RLUcompound is the RLU signal value from the compound-treated well samples. […]

| IC50 (p-ERK [1]) | IC50 (p-ERK [2]; Homo sapiens, NCI-H441, 3 h) | IC50 (NCI-H441 cells; Homo sapiens, NCI-H441, 120 h) | SMILES | IC50 (NCI-H441 cells) | IC50 (p-ERK [2]) |
| --- | --- | --- | --- | --- | --- |
| 367 nM | 157 nM | – | CCn1nc2c(c1-c1cc(N3CCN(C)CC3)cnc1[C@H](C)OC)CC(C)(C)COC(=O)[C@@H]1CCCN(N1)C(=O)[C@@H](NC(=O)[C@H]1[C@H](C)[C@@H]1C)Cc1nc(cs1)/C=C/2 (atropisomer, axis not shown) [Compound Z4] | – | – |
| 0.07 nM | 0.36 nM | – | CCn1cc2c(c1-c1cc(C#CCN3CCC(C#N)(CN)CC3)cnc1[C@H](C)OC)CC(C)(C)COC(=O)[C@@H]1CCCN(N1)C(=O)[C@@H](NC(=O)[C@H]1[C@H](C)[C@@H]1C)Cc1nc(co1)/C=C/2 (atropisomer, axis not shown; (Ra)) [Compound Z234, (1r,2R,3S)-N-((4^2Z,8^3 S,2E,6S)-(Ra)-1^5-(5-(3-(4-(aminomethyl)-4-cyanopiperidin-1-yl)prop-1-yn-1-yl)-2-((S)-1-methoxyethyl)pyridin-3-yl)-1^1-ethyl-12,12-dimethyl-7,9-dioxo-8^1,8^2,8^3,8^4,8^5,8^6-hexahydro-1^1H-10-oxa-4(4,2)-oxazola-8(1,3)-pyridazina-1(3,4)-pyrrolacyclotridecaphan-2-en-6-yl)-2,3-dimethylcyclopropane-1-carboxamide] | – | – |
| 191 nM | 71.8 nM | – | CCn1nc2c(c1-c1cc(N3CCN(C)CC3)cnc1[C@H](C)OC)CC(C)(C)COC(=O)[C@@H]1CCCN(N1)C(=O)[C@@H](NC(=O)[C@H]1[C@H](C)[C@@H]1C)Cc1nc(cs1)/C=C/2 (single isomer, unassigned) [Compound Z4-1] | – | – |
| – | 115 nM | 386 nM | CCn1nc2c(c1-c1cc(C#CCN3CCS(=O)(=O)CC3)cnc1[C@H](C)OC)CC(C)(C)COC(=O)[C@@H]1CCCN(N1)C(=O)[C@@H](NC(=O)[C@H](C(C)C)N1CCC(C)C1=O)Cc1nc(cs1)/C=C/2 (atropisomer, axis not shown; (Ra)) [Compound Z116, (2S)-N-((4^2Z,8^3S,2E,6S)-(Ra)-1^5-(5-(3-(1,1-dioxothiomorpholinyl)prop-1-yn-1-yl)-2-((S)-1-methoxyethyl)pyridin-3-yl)-1^1-ethyl-12,12-dimethyl-7,9-dioxo-8^1,8^2,8^1,8^4,8^5,8^6-hexahydro-1^1H-10-oxo-4 (4,2)-thiazola-8(1,3)-pyridazina-1(3,4)-pyrrolacyclotridecaphan-2-en-6-yl)-3-methyl-2-(3-methyl-2-oxopyrrolidin-1-yl)butanamide] | – | – |
| – | 150 nM | 240 nM | CCn1nc2c(c1-c1cc(C#CCN3CCS(=O)(=O)CC3)cnc1C(C)OC)CC(C)(C)COC(=O)C1CCCN(N1)C(=O)C(NC(=O)C(C(C)C)N(C)C(=O)Cn1ccc3ccccc31)Cc1nc(cs1)C=C2 (single isomer, unassigned) [Compound Z54-1] | – | – |
| – | – | – | CCn1nc2c(c1-c1cc(C#CCN3CCS(=O)(=O)CC3)cnc1C(C)OC)CC(C)(C)COC(=O)C1CCCN(N1)C(=O)C(NC(=O)C(C)Cc1ccnc(NC)c1)Cc1nc(cs1)C=C2 (single isomer, unassigned) [Compound Z52-2] | 25 nM | 32 nM |
| 506 nM | 177 nM | – | CO[C@@H](C)c1ncc(C#CCN2CCS(=O)(=O)CC2)cc1-c1c2c(nn1C(C)C)/C=C/c1csc(n1)C[C@H](NC(=O)CC1CC(CO)C1)C(=O)N1CCC[C@H](N1)C(=O)OCC(C)(C)C2 (stereo partly drawn) [Compound Z39, N-((4^2Z,8^3S,2E,6S)-1^5-(5-(3-(1,1-dioxidothiomorpholino)prop-1-yn-1-yl)-2-((S)-1-methoxyethyl)pyridin-3-yl)-1^1-isopropyl-12,12-dimethyl-7,9-dioxo-8^1,8^2,8^3,8^4,8^5,8^6-hexahydro-1^1H-10-oxa-4(4,2)-thiazola-8(1,3)-pyridazina-1(3,4)-pyrrolacyclotridecaphan-2-en-6-yl)-2-(3-(hydroxymethyl)cyclobutyl)acetamide] | – | – |

| SMILES | IC50 (p-ERK [1]) | IC50 (p-ERK [2]; Homo sapiens, NCI-H441, 3 h) | IC50 (NCI-H441 cells; Homo sapiens, NCI-H441, 120 h) | IC50 (NCI-H441 cells) | IC50 (p-ERK [2]) |
| --- | --- | --- | --- | --- | --- |
| CCn1nc2c(c1-c1cc(C#CCN3CCS(=O)(=O)CC3)cnc1C(C)OC)CC(C)(C)COC(=O)C1CCCN(N1)C(=O)C(NC(=O)C(C)Cc1ccnc(NC)c1)Cc1nc(cs1)C=C2 (single isomer, unassigned) [Compound Z52-1] | – | 52.3 nM | – | 76.5 nM | – |
